According to patent US20090232909A1, “Method for determining physiological effects of hemoglobin” (priority 1999, published 2009):
Entries after “also recorded” stand apart in the source; their conditions may differ.

Legend:
Hb = Hb (Homo sapiens, UniProt P68871+P69905); assay: metHb production by UV-visible difference spectroscopy after NO addition to variously oxygenated Hb; format: biochemical; set-up: purchased Apex Bioscience (Research Triangle Park, N.C.); conditions: 10 mM phosphate
Experimental: Nitroso/nitrosyl derivatives of Hb were measured using a photolysis-chemiluminescence technique [6-fold excess HgCl2 over protein was added to displace S-nitrosothiol (SNO) (Stamler, J. S., et al., Science, 276:2034-2037, 1997)]. Samples were kept on ice for a period of 5 minutes to 2 hours before analyses. MetHb was monitored by UV-visible spectroscopy as the difference absorption above the linear baseline (600-700 nm), and EPR (below).
The samples used in FIGS. 1A-1D were assayed for metHb production by UV-visible difference spectroscopy. The data are normalized to added [NO]. As in FIGS. 1A-1D: open diamonds, 10 mM phosphate; open circles, 10 mM phosphate plus borate; open squares, 10 mM phosphate plus SOD; filled circles and filled squares, 100 mM phosphate. The dotted (10 mM phosphate) and dashed (100 mM phosphate) lines are calculated by using Eq. 5 and Fe(II)NO yields in FIGS. 1C and 1D, respectively. […] Systematic deviations are most pronounced in low phosphate at high oxygen saturation—i.e., under physiological conditions.

[1] = system: intact human erythrocytes; assay: Distribution of NO groups in membrane and cytosolic fractions of RBCs exposed to NO; format: cell-based; conditions: 0.1 mM DIDS before NO, NO:heme 1:250
Experimental: RBCs derived from fresh venous blood and suspended in oxygen-purged phosphate-buffered saline (PBS) were exposed in gas-tight vials to NO, added as aliquots of oxygen-purged NO-saturated PBS to yield the specified NO:heme ratios based on spectrophotometric assessment of heme content. Exposure to NO was for 5 mins followed by rinses in PBS at 21% O2. RBCs were lysed in 10 mM MOPS, 0.1 mM DTPA, pH 7, followed by centrifugation at 20,000×g for 10 mins to produce membrane and cytosolic fractions, which were solubilized in 1% TX-100. Quantification of NO groups was by photolysis/chemiluminescence (McMahon, T. J. & Stamler, J. S., Meth. Enzymol. 301:99-114, 1999). SNO content was measured as NO removed by treating sample aliquots for 5 mins with HgCl2 at 5-fold molar excess over estimated thiol content (Gow, A. J. & Stamler, J. S., Nature 391:169-173, 1998; Gow, A. J. et al., Proc. Natl. Acad. Sci. USA 96:9027-9032, 1999; McMahon, T. J. & Stamler, J. S., Meth. Enzymol. 301:99-114, 1999). […]
Immunoprecipitation was carried out by incubation of TX-100 or NP-40 extracts with antibodies followed by protein G-Sepharose. […] Binding of SNO-Hb to IOVs was assessed in 10 mM MOPS buffer, pH 7, at room temperature and 21% O2. Incubation was for 15 mins before IOVs were solubilized in 1% TX-100, and heme content was assessed spectrophotometrically. […]

Hb, sequence (P69905 2-142 limits assumed): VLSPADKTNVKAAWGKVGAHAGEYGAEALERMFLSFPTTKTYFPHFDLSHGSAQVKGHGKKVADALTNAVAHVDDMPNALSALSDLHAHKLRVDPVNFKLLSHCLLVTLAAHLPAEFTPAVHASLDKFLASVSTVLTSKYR
Hb, sequence (P68871 2-147 limits assumed): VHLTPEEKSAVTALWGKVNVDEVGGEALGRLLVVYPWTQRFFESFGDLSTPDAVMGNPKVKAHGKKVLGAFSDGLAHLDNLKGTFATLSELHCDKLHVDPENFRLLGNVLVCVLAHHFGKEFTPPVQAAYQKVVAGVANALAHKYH

SMILES	shortfall in the Fe(III) and Fe(II)NO products (Hb)	effect on SNO in the membrane fraction [1]	effect on net formation of NO-liganded Hb (total NO incorporated by RBCs) [1]
[N]=O [NO, nitric oxide]	≤ 20 % of added [NO]0		
O=S(=O)(O)c1cc(N=C=S)ccc1C=Cc1ccc(N=C=S)cc1S(=O)(=O)O [DIDS, 4,4′-diisothiocyanatostilbene-2,2′-disulfonic acid]		greatly decreased; also recorded: substantially decreases	did not reduce; also recorded: does not reduce
